The source of these data is patent US20240247080A1, “GLP1/GIP/NPY2 RECEPTOR TRIPLE AGONISTS” (Boehringer Ingelheim International GmbH, priority 2022, published 2024).

Non-standard residues stand in square brackets, D forms with d. Residues, ends and D or L forms follow the SMILES beside them. Groups on a side chain read outwards from the residue. ξ: configuration not given here. *: point of attachment. NMeY = CN[C@@H](Cc1ccc(O)cc1)C(=O)O; Palmitoyl = CCCCCCCCCCCCCCCC(=O)*; αMeF = C[C@](N)(Cc1ccccc1)C(=O)O; ξIva = CCC(C)(N)C(=O)O; Aib = CC(C)(N)C(=O)O

A short description of data set [1]: Solubility in 0.1 M phosphate buffer at pH 7. The data set is classed as physicochemical. As for the experimental part: Peptides (as TFA-salts) were weighed out in a filter unit (Mini-UniPrep Syringieless Filter 0.45 prn. Whatman PVDF), and 0.1 M phosphate buffer at pH 7 was added to achieve 10 mg/mL final peptide concentration. The peptides were dissolved by shaking the filter units horizontally at 600 rpm for 2 hours at room temperature. Samples were then filtered to remove any insoluble particles. Controls were prepared by weighing out the corresponding peptide solid material and dissolving it in an appropriate vehicle (e.g. ACN:H2O) to a final concentration of 1 mg/mL. Both, the control and sample were analyzed by reversed phase chromatography. The area under the peak of the sample was compared to the control and the solubility was calculated based on that ratio. The pH was measured and recorded for each sample.

Data set [2] is described as follows: Mouse PK after intravenous application. The data set is classed as in vivo. The note with it: in vivo, mean residence time, intravenous 30-60 nmol/kg, male NMRI mice. The method in brief:
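Male NMRI mice (30–40 g) received 30-60 nmol/kg peptide by tail-vein injection, dissolved in 50 mM phosphate buffer (pH 7.4)/3.5% mannitol. Saphenous blood was sampled up to 56 hours post-dose and EDTA plasma analysed by LC-MS. PK parameters came from non-compartmental analysis.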

Turning to `CCCCCCCCCCCCCCCC(=O)NCC(=O)NCC(=O)NCC(=O)NCC(=O)NCCCC[C@H](NC(=O)[C@H](CC(=O)O)NC(=O)[C@H](CO)NC(=O)[C@@H](NC(=O)[C@](C)(Cc1ccccc1)NC(=O)[C@@H](NC(=O)CNC(=O)[C@H](CCC(=O)O)NC(=O)C(C)(C)NC(=O)[C@H](Cc1ccc(O)cc1)NC)[C@@H](C)O)[C@@H](C)O)C(=O)N[C@@H](CO)C(=O)N[C@H](C(=O)NC(C)(C)C(=O)N[C@@H](CC(C)C)C(=O)N[C@@H](CCC(=O)O)C(=O)N[C@@H](CCCCN)C(=O)N[C@@H](CCC(N)=O)C(=O)N[C@@H](CCCNC(=N)N)C(=O)N[C@@H](CCC(N)=O)C(=O)NC(C)(CC)C(=O)N[C@@H](CCC(=O)O)C(=O)N[C@@H](Cc1ccccc1)C(=O)N[C@H](C(=O)N[C@@H](CCCNC(=N)N)C(=O)N[C@@H](Cc1c[nH]cn1)C(=O)N[C@@H](CC(C)C)C(=O)N[C@@H](CC(C)C)C(=O)N[C@@H](CC(N)=O)C(=O)N[C@@H](CCCCN)C(=O)NC(C)(C)C(=O)N[C@H](C(=O)N[C@@H](CCCNC(=N)N)C(=O)N[C@@H](CCC(N)=O)C(=O)N[C@@H](CCCNC(=N)N)C(=O)N[C@@H](Cc1ccc(O)cc1)C(N)=O)[C@@H](C)O)C(C)C)[C@@H](C)CC` (stereo partly drawn) [Ref. 1, NMeY-Aib-E-G-T-aMeF-T-S-D-K(1,3)-S-I-Aib-L-E-K-Q-R-Q-Iva-E-F-V-R-H-L-L-N-K-Aib-T-R-Q-R-Y-NH2.C16A-G-G-G-G(1,2), reference compound] (H-[NMeY][Aib]EGT[αMeF]TSDK([Gly-Gly-Gly-Gly-Palmitoyl])SI[Aib]LEKQRQ[ξIva]EFVRHLLNK[Aib]TRQRY-NH2), the solubility in data set [1] was below 1000 µg/mL. This compound also showed an MRT in data set [2] below 1 h.

The solubility is the concentration that dissolves in the medium under given conditions. Read a high solubility as a readily soluble substance. A word on the MRT: it is a mean duration of stay, worked out from the concentration-time curve.
